Reference: patent US20220283175A1, “METALLOENZYMES FOR BIOMOLECULAR RECOGNITION OF N-TERMINAL MODIFIED PEPTIDES” (Encodia, Inc., priority 2020, published 2022)
Values belong to the compound of their own block, whether it stands above or below them. Residues, ends and D or L forms follow the SMILES beside them. *: point of attachment. Benzoyl(4-SO2NH2) = NS(=O)(=O)c1ccc(C(=O)*)cc1

Columns and labels:
wild-type hCAII protein = wild-type hCAII protein (Homo sapiens, UniProt P00918); assay: colorimetric IC50 assay (pNPA hydrolysis) with wild-type hCAII; type: biochemical; conditions: for Fold Enhancement: relative to NTM M64; for IC50: 300 nM wild-type hCAII
Protocol: The colorimetric assay used 300 nM of wild-type carbonic anhydrase incubated in 45 μL of 50 mM MOPS (pH 7.5), 33 mM Na2SO4, and 1 mM EDTA aliquoted into a 96-well, clear, flat-bottom plate. To each column of the plate, a 1/10 dilution series from 1 mM to 0.1 nM of each NTM was added and incubated at 25° C. for 10 minutes to reach binding equilibrium. To this, 1 mM p-nitrophenylacetate (pNPA) was added to each well and screened on a plate reader at 405 nm wavelength. The initial rate of hydrolysis was observed over the first 60 seconds. The slopes versus the concentration of NTM were put into a non-linear regression equation to determine the IC50 of the NTM to the carbonic anhydrase.
The N-terminally modified peptides were then evaluated using colorimetric IC50 assay to determine relative binding affinity of NTM-AAEIR to wild-type hCAII protein based on NTM-AAEIR inhibition capacity. The slopes versus the concentration of NTM-AAEIR were put into a non-linear regression equation to determine the IC50 of the selected NTM-AAEIR peptides to the wild-type hCAII.

[1] = target: human carbonic anhydrase II (hCAII) (Homo sapiens, UniProt P00918); assay: hCAII functional assay (hydrolysis of p-nitrophenylacetate, pNP release); type: biochemical; conditions: 1 μM hCAII, 500 μM pNP-OAc, 10 min at 37° C.
Protocol: A functional assay for hCAII enzyme was set up. Carbonic anhydrase catalyzes the hydrolysis of 4-nitrophenyl acetate (4-NPA) to nitrophenol, which can be monitored by absorbance at 400 nm. The enzymatic carbonic anhydrase assay generally includes 0.2-1.0 μM enzyme and 10-500 μM 4-NPA in 20-200 μL in assay buffer. […] Metal chelating agents (EDTA or EGTA), salt (NaCl, sulfate), detergent (Tween or Triton), and organic additives (acetonitrile, DMSO) may be employed to facilitate enzyme stability and reagent solubility. For the assay, 1 μM human carbonic anhydrase II, 50 mM MOPS (pH 7.6), 33 mM disodium sulfate, and 1 mM EDTA. To generate NTM-modified peptides, azide-derivatized peptides (via azide-PEG-amine and carbodiimide coupling to C-terminus of peptide) were conjugated to DBCO-coupled beads. […] To evaluate P1 dependence of the binding reaction, multiple P1 residues has been tested.

SMILES: NS(=O)(=O)c1ccc(C(=O)O)c(F)c1 [M75, 2-Fluoro-4-sulfamoylbenzoic acid]
Fold Enhancement (wild-type hCAII protein; NTM-AAEIR): 2.2
IC50 (wild-type hCAII protein; free NTM): 224 nM
Fold Enhancement (wild-type hCAII protein; free NTM): 2.1

SMILES: NS(=O)(=O)c1ccc(C(=O)O)c([N+](=O)[O-])c1 [M67, 2-Nitro-4-sulfamoylbenzoic acid]
Fold Enhancement (wild-type hCAII protein; NTM-AAEIR): 2.0
IC50 (wild-type hCAII protein; free NTM): 124 nM
Fold Enhancement (wild-type hCAII protein; free NTM): 3.8

IC50 [1]: 45 nM
SMILES: C[C@H](NC(=O)[C@H](C)NC(=O)[C@H](Cc1ccccc1)NC(=O)c1ccc(S(N)(=O)=O)cc1)C(=O)N[C@@H](C)C(=O)N[C@@H](CCC(=O)O)C(N)=O [(SAB)FAAAE] ({Benzoyl(4-SO2NH2)}-FAAAE-NH2)

SMILES: COc1cc(S(N)(=O)=O)ccc1C(=O)O [M73, 2-Methoxy-4-sulfamoylbenzoic acid]
IC50 (wild-type hCAII protein; free NTM): 65400 nM
Fold Enhancement (wild-type hCAII protein; free NTM): 0.0

IC50 (wild-type hCAII protein; free NTM): 1380 nM
Fold Enhancement (wild-type hCAII protein; free NTM): 0.3
SMILES: Nc1cc(S(N)(=O)=O)ccc1C(=O)O [2-NH2, 2-Amino-4-sulfamoylbenzoic acid]

SMILES: NS(=O)(=O)c1ccc(C(=O)O)nc1 [M66]
IC50 (wild-type hCAII protein; free NTM): 992 nM
Fold Enhancement (wild-type hCAII protein; free NTM): 0.5

SMILES: NS(=O)(=O)c1ccc(C(=O)O)c(Cl)c1 [M76, 2-Chloro-4-sulfamoylbenzoic acid]
Fold Enhancement (wild-type hCAII protein; NTM-AAEIR): 1.9
IC50 (wild-type hCAII protein; free NTM): 180 nM
Fold Enhancement (wild-type hCAII protein; free NTM): 2.6

SMILES: NS(=O)(=O)c1ccc(C(=O)O)cn1 [M65, 6-Sulfamoylpyridine-3-carboxylic acid]
Fold Enhancement (wild-type hCAII protein; NTM-AAEIR): 0.3
IC50 (wild-type hCAII protein; free NTM): 211 nM
Fold Enhancement (wild-type hCAII protein; free NTM): 2.2

SMILES: Cc1cc(S(N)(=O)=O)ccc1C(=O)O [M74, 2-methyl-4-sulfamoylbenzoic acid]
IC50 (wild-type hCAII protein; free NTM): 2040 nM
Fold Enhancement (wild-type hCAII protein; free NTM): 0.2

IC50 [1]: 183 nM
SMILES: C[C@H](NC(=O)c1ccc(S(N)(=O)=O)cc1)C(=O)N[C@@H](Cc1ccccc1)C(=O)N[C@@H](C)C(=O)N[C@@H](C)C(=O)N[C@@H](CCC(=O)O)C(N)=O [(SAB)AFAAE] ({Benzoyl(4-SO2NH2)}-AFAAE-NH2)

SMILES: NS(=O)(=O)c1ccc(C(=O)O)cc1F [M88, 3-Fluoro-4-sulfamoylbenzoic acid]
Fold Enhancement (wild-type hCAII protein; NTM-AAEIR): 1.6
IC50 (wild-type hCAII protein; free NTM): 110 nM
Fold Enhancement (wild-type hCAII protein; free NTM): 4.3
